Source: US8946203B2, “Benzodioxane inhibitors of leukotriene production” (Boehringer Ingelheim International GmbH, priority 2012, dated 2015)

Experiments:
human LTA4 hydrolase = target: T1, human LTA4 hydrolase (Homo sapiens, UniProt P09960); experiment: LTA4H Enzyme assay (cleavage of Arg-AMC, fluorescence); format: biochemical; details: LTA4H Enzyme 1 nM, Arg-AMC substrate 50 μM, room temperature 1 h, fluorescence; read-out: IC50 values of LTA4H Enzyme assay
T1 sequence (P09960 1-611): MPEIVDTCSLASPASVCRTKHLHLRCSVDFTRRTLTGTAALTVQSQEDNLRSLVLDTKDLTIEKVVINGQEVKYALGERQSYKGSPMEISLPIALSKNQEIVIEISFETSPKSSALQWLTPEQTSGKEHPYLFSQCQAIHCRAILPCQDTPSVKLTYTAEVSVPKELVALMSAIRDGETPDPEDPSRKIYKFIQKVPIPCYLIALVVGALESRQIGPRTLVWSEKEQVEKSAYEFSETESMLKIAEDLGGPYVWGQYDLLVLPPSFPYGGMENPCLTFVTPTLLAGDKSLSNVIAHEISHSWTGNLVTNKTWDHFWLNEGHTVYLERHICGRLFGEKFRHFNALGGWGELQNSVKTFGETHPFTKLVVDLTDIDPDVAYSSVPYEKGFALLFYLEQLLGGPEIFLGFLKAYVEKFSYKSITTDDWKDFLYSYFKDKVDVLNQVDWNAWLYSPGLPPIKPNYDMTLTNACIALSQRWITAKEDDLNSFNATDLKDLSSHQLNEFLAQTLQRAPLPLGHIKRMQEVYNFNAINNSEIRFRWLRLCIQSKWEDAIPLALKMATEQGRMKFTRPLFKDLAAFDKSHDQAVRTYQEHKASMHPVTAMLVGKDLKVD
Summary of the method: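 Peptidase activity of human LTA4H (1 nM final) on Arg-AMC (50 μM final), with compound, 1 h at room temperature. Buffer: 50 mM Tris-HCl pH 7.5, 100 mM KCl, 0.5% BSA.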

[1] = tested on: synthesis of LTB4 in human whole blood; experiment: human whole blood (HWB) assay, LTB4 production inhibition after calcimycin stimulation; format: cell-based; details: heparinized human whole blood, calcimycin 20 μM, plasma LTB4 by HTRF
Protocol: The compounds of the invention are additionally tested in a human whole blood (HWB) assay to determine their ability to inhibit the synthesis of LTB4 in a cellular system. Compounds are combined with heparinized human whole blood and incubated for 15 minutes at 37° C. Calcimycin (20 μM final, prepared in phosphate-buffered saline, pH 7.4) is then added and the mixture is incubated for another 30 minutes at 37° C. The samples are centrifuged for 5 min at low speed (1500×g) and the plasma layer is removed. Plasma LTB4 concentrations are then measured using an antibody-based homogenous time-resolved fluorescence method (CisBio, Bedford, Mass.). In general, the preferred potency range (IC50) of compounds in the HWB assay is between 10 nM to 10 μM, the more preferred potency range is 10 nM to 1 μM, and the most preferred potency range is 10 nM to 100 nM.

Compound | IC50 (human LTA4 hydrolase) [nM] | IC50 [1] [nM]
c1ccc2c(c1)OCC(c1ccc(CN3CCCC3)cc1)O2 (racemic) [Example 1, 1-[4-(2,3-dihydro-1,4-benzodioxin-2-yl)benzyl]pyrrolidine] | 0.38 | 179
O[C@H]1CCN(Cc2ccc(C3COc4ccccc4O3)cc2)C1 (mixture of isomers) [Example 9, (3S)-1-[4-(2,3-dihydro-1,4-benzodioxin-2-yl)benzyl]pyrrolidin-3-ol] | 1.49 | 285
O=C1CCCN1CC1CCCN(Cc2ccc(C3COc4ccccc4O3)cc2)C1 (racemic) [Example 10, 1-({1-[4-(2,3-dihydro-1,4-benzodioxin-2-yl)benzyl]piperidin-3-yl}methyl)pyrrolidin-2-one] | 0.75 | 352
c1cnc2c(c1)OCC(c1ccc(CN3CCOCC3)cc1)O2 (racemic) [Example 18, 3-[4-(morpholin-4-ylmethyl)phenyl]-2,3-dihydro[1,4]dioxino[2,3-b]pyridine] | 1.14 | 176
CNC(=O)C1CCN(Cc2ccc(C3COc4ccccc4O3)cc2)CC1 (racemic) [Example 25, 1-[4-(2,3-Dihydro-benzo[1,4]dioxin-2-yl)-benzyl]-piperidine-4-carboxylic acid methylamide] | 0.76 | 294
O=C(O)CCCC1CCN(Cc2ccc(C3COc4ccccc4O3)cc2)CC1 (racemic) [Example 26, 4-{1-[4-(2,3-dihydro-1,4-benzodioxin-2-yl)benzyl]piperidin-4-yl}butanoic acid] | 0.43 | 308
O=C(C1CCN(Cc2ccc(C3COc4ccccc4O3)cc2)CC1)N1CCOCC1 (racemic) [Example 37, {1-[4-(2,3-dihydro-1,4-benzodioxin-2-yl)benzyl]piperidin-4-yl}(morpholin-4-yl)methanone] | 1.05 | 324
O=C(NCCO)C1CCN(Cc2ccc(C3COc4ccccc4O3)cc2)CC1 (racemic) [Example 52, 1-[4-(2,3-dihydro-1,4-benzodioxin-2-yl)benzyl]-N-(2-hydroxyethyl)piperidine-4-carboxamide] | 0.75 | 145
NC(=O)NC1CCN(Cc2ccc(C3COc4ccccc4O3)cc2)CC1 (racemic) [Example 53, 1-{1-[4-(2,3-dihydro-1,4-benzodioxin-2-yl)benzyl]piperidin-4-yl}urea] | 0.42 | 155
CC(=O)N1CCC(N(C)Cc2ccc([C@H]3COc4ccccc4O3)cc2)CC1 [Example 14, 1-{4-[{4-[(2S)-2,3-dihydro-1,4-benzodioxin-2-yl]benzyl}(methyl)amino]piperidin-1-yl}ethanone] | 0.27 | 155
O=C(O)C1CCN(Cc2ccc([C@H]3COc4ccccc4O3)cc2)C1 (stereo partly drawn) [Example 61, 1-{4-[(2S)-2,3-dihydro-1,4-benzodioxin-2-yl]benzyl}pyrrolidine-3-carboxylic acid] | 0.6 | 250
CC(=O)N1CC[C@@H](NCc2ccc([C@H]3COc4ccccc4O3)cc2)C1 [Example 64, 1-[(3R)-3-({4-[(2S)-2,3-dihydro-1,4-benzodioxin-2-yl]benzyl}amino)pyrrolidin-1-yl]ethanone] | 0.83 | 158
CN(Cc1ccc([C@H]2COc3ccccc3O2)cc1)C1CCCCC1 [Example 67, N-{4-[(2S)-2,3-dihydro-1,4-benzodioxin-2-yl]benzyl}-N-methylcyclohexanamine] | 0.61 | 346
CC1CCCCN1Cc1ccc([C@H]2COc3ccccc3O2)cc1 (stereo partly drawn) [Example 68, 1-{4-[(2S)-2,3-dihydro-1,4-benzodioxin-2-yl]benzyl}-2-methylpiperidine] | 0.1 | 81
OCC1CCCN(Cc2ccc([C@H]3COc4ccccc4O3)cc2)C1 (stereo partly drawn) [Example 69, (1-{4-[(2S)-2,3-dihydro-1,4-benzodioxin-2-yl]benzyl}piperidin-3-yl)methanol] | 0.6 | 165
CN(Cc1ccc([C@H]2COc3ccccc3O2)cc1)C(C)(C)C [Example 81, N-{4-[(2S)-2,3-dihydro-1,4-benzodioxin-2-yl]benzyl}-N,2-dimethylpropan-2-amine] | 0.31 | 81

Compound | IC50 (human LTA4 hydrolase) [nM] | IC50 [1] [nM]
CC(=O)N(C)C1CCN(Cc2ccc([C@H]3COc4ccccc4O3)cc2)C1 (stereo partly drawn) [Example 83, N-(1-{4-[(2S)-2,3-dihydro-1,4-benzodioxin-2-yl]benzyl}pyrrolidin-3-yl)-N-methylacetamide] | 0.13 | 33
OC[C@H]1CCCC[C@H]1NCc1ccc([C@H]2COc3ccccc3O2)cc1 [Example 87, [(1S,2R)-2-({4-[(2S)-2,3-dihydro-1,4-benzodioxin-2-yl]benzyl}amino)cyclohexyl]methanol] | 0.69 | 268
O=C1CCCN1CC1CCN(Cc2ccc([C@H]3COc4ccccc4O3)cc2)CC1 [Example 99, 1-[(1-{4-[(2S)-2,3-dihydro-1,4-benzodioxin-2-yl]benzyl}piperidin-4-yl)methyl]pyrrolidin-2-one] | 0.37 | 95
CCN(Cc1ccc([C@H]2COc3ccccc3O2)cc1)C1CCCC1 [Example 109, N-{4-[(2S)-2,3-dihydro-1,4-benzodioxin-2-yl]benzyl}-N-ethylcyclopentanamine] | 0.17 | 76
O=C1NCCCC12CCN(Cc1ccc([C@H]3COc4ccccc4O3)cc1)CC2 [Example 116, 9-{4-[(2S)-2,3-dihydro-1,4-benzodioxin-2-yl]benzyl}-2,9-diazaspiro[5.5]undecan-1-one] | 0.82 | 310
CC(=O)N1CCCC12CCN(Cc1ccc([C@H]3COc4ccccc4O3)cc1)C2 (stereo partly drawn) [Example 118, 1-(7-{4-[(2S)-2,3-dihydro-1,4-benzodioxin-2-yl]benzyl}-1,7-diazaspiro[4.4]non-1-yl)ethanone] | 0.45 | 256
CN1CCC2(CCN(Cc3ccc([C@H]4COc5ccccc5O4)cc3)CC2)C1=O [Example 121, 8-{4-[(2S)-2,3-dihydro-1,4-benzodioxin-2-yl]benzyl}-2-methyl-2,8-diazaspiro[4.5]decan-1-one] | 0.37 | 159
NC(=O)CN1CCCC12CCN(Cc1ccc([C@H]3COc4ccccc4O3)cc1)C2 (stereo partly drawn) [Example 123, 2-(7-{4-[(2S)-2,3-dihydro-1,4-benzodioxin-2-yl]benzyl}-1,7-diazaspiro[4.4]non-1-yl)acetamide] | 0.73 | 312
O=C1NCCC12CCN(Cc1ccc([C@H]3COc4cccnc4O3)cc1)CC2 [Example 125, 8-[(S)-4-(2,3-Dihydro-[1,4]dioxino[2,3-b]pyridin-3-yl)-benzyl]-2,8-diaza-spiro[4.5]decan-1-one] | 0.16 | 39
c1cnc2c(c1)OC[C@H](c1ccc(CN3CCCC3)cc1)O2 [Example 126, (3S)-3-[4-(pyrrolidin-1-ylmethyl)phenyl]-2,3-dihydro[1,4]dioxino[2,3-b]pyridine] | 0.18 | 32
O=C(O)CCC1CCN(Cc2ccc([C@H]3COc4ccccc4O3)cc2)CC1 [Example 134, 3-(1-{4-[(2S)-2,3-dihydro-1,4-benzodioxin-2-yl]benzyl}piperidin-4-yl)propionic acid] | 0.47 | 95
CC1CCN(Cc2ccc([C@H]3COc4cccnc4O3)cc2)CC1 [Example 137, (3S)-3-{4-[(4-methylpiperidin-1-yl)methyl]phenyl}-2,3-dihydro[1,4]dioxino[2,3-b]pyridine] | 0.26 | 28
O=C(O)c1ccc(C2CCN(Cc3ccc([C@H]4COc5cccnc5O4)cc3)CC2)cc1 [Example 235, 4-(1-{4-[(3S)-2,3-dihydro[1,4]dioxino[2,3-b]pyridin-3-yl]benzyl}piperidin-4-yl)benzoic acid] | 0.08 | 
CCN(Cc1ccc([C@H]2COc3ccccc3O2)cc1)Cc1cccc(C(=O)O)c1 [Example 238, 3-{[{4-[(2S)-2,3-dihydro-1,4-benzodioxin-2-yl]benzyl}(ethyl)amino]methyl}benzoic acid] | 0.55 | 
O=C(O)c1cccc(CN2CCN(Cc3ccc([C@H]4COc5ccccc5O4)cc3)CC2)c1 [Example 239, 3-{4-[(S)-4-(2,3-Dihydro-benzo[1,4]dioxin-2-yl)-benzyl]-piperazin-1-ylmethyl}-benzoic acid] | 0.15 | 
